This is an account of results in patent US12698264B2, “Synthesis of tigilanol tiglate and analogs thereof” (THE BOARD OF TRUSTEES OF THE LELAND STANFORD JUNIOR …, priority 2021, dated 2026).

Entries after “also recorded” stand apart in the source; their conditions may differ.

The subject of one data set is protein kinase C (PKC). The class given is binding, human. Here is the method: (§1) The protein kinase C (PKC) affinity of EBC-46 and EBC-46 analogs was performed via competition with ^3H-phorbol-12,13-dibutyrate (^3H-PDBu). This procedure entailed a glass-fiber filtration method to determine bound radioligand.
(§2) Preparation of PKC binding assay buffer: To a 50 mL polypropylene tube was added Tris-HCl (pH 7.4, 1 M, 1 mL), KCl (1 M, 2 mL), CaCl2 (0.1 M, 30 μL), and bovine serum albumin (BSA, 40 mg, Sigma-Aldrich). This mixture was diluted to 20 mL with deionized H2O and mixed gently. The buffer was stored on ice until use.
(§3) Preparation of phosphatidylserine (PS) vesicles: For every two assays, 3.5 mg phosphatidylserine (Avanti Polar Lipids, porcine, 25 mg/mL CHCl3 solution) was concentrated by removing chloroform under a stream of nitrogen followed by reduced pressure. […]
(§4) For each data point, 280 μL of “Master Mix” Solution and 20 μL of analog compound at a specified concentration were added to a polypropylene tube. […] Maximal ^3H-PDBu binding was assessed in triplicate by substitution of the analog compound with 20 μL DMSO. […] Scintillation vials were filled with Bio-Safe II scintillation fluid (5 mL) and measured for radioactivity using a Beckman LS 6000SC scintillation counter. […] The Kd of ^3H-PDBu for PKC isoforms was measured separately via saturation binding experiments under identical conditions.

The subject of the next data set is PKC-βI-GFP. The class given is cell-based, Chinese hamster. Here is the method: 2 mL of fresh F-12−/− was then added to each well, taking care not to disturb adherent cells. […] 250 μL of the Lipofectamine 2000 suspension was added to the DNA suspension and the solution incubated for 30 minutes at RT. 500 μL of the Lipofectamine/DNA suspension was added to the respective wells of the 6-well plate. The cells were then incubated at 37° C.

Data set [1] is described as follows: Incubation in neutral aqueous media. The conditions noted are these: upon incubation in neutral aqueous media. The class given is physicochemical.
A further data set addresses T1, PKC-βI (Homo sapiens, UniProt P05771).
T1 construct: purchased Invitrogen
The class given is binding. Here is the method:
as §1, §2, §3, §4

In a further data set the test system is mast cell tumors. The conditions noted are these: canines, cited from earlier work.
For another data set, the system named is chikungunya virus (CHKV). As to conditions: cited from earlier work.
For a further data set, the target named is PKC β (Homo sapiens, UniProt P05771). Nature of the data set: PKC binding of trigowiin A. The conditions noted are these: type of constant not given; read-out: binds with PKC β.
Another data set deals with PKC δ (Homo sapiens, UniProt Q05655). Nature of the data set: PKC binding of trigowiin A. The conditions noted are these: type of constant not given; read-out: binds with PKC δ.
PKC δ, sequence (Q05655 whole entry): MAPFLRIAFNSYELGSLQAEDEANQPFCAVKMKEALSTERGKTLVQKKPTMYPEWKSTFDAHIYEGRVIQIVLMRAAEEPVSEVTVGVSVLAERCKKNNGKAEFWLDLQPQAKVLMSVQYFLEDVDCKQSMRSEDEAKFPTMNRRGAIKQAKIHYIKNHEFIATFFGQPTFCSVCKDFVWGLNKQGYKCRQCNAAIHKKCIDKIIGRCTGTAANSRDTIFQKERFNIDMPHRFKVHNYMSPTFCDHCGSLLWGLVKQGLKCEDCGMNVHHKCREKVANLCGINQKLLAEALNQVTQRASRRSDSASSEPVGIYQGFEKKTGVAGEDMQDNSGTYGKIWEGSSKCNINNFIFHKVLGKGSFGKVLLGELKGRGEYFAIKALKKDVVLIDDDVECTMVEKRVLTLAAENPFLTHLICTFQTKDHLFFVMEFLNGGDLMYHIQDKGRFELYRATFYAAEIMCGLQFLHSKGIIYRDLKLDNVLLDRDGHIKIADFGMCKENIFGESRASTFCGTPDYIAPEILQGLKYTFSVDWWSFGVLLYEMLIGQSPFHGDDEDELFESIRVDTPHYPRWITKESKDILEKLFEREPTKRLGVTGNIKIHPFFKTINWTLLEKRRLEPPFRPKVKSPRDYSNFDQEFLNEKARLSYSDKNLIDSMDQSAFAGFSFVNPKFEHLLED

PKC β, sequence (P05771 whole entry, species assumed): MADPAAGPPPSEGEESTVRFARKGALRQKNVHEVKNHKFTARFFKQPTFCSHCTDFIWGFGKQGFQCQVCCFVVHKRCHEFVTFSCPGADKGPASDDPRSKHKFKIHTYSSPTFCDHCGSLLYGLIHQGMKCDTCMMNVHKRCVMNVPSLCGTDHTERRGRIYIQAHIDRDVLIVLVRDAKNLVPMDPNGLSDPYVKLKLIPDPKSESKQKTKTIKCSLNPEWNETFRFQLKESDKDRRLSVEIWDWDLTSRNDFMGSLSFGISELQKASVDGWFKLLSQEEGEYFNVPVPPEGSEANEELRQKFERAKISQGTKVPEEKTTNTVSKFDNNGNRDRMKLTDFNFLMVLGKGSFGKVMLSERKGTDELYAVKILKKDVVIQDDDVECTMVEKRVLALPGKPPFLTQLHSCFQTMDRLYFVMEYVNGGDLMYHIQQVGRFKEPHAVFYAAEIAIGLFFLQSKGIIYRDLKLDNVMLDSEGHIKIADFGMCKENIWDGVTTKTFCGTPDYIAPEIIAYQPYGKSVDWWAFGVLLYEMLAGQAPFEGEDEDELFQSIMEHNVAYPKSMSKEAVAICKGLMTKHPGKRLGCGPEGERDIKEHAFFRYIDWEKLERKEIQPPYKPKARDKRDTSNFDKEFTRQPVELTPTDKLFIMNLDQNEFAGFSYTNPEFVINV
T1 sequence (P05771 whole entry): as the sequence (P05771 whole entry, species assumed) above

In the case of `CC(=O)O[C@@H]1[C@@H](C)[C@@]2(O)C([C@@H]3C(C)(C)[C@]13OC(C)=O)[C@@H]1O[C@]1(CO)[C@@H](O)[C@]1(O)C(=O)C(C)=C[C@H]12` (stereo partly shown) [SUW401], in the data set with protein kinase C (PKC), the PKC binding affinity entry was “very low PKC binding affinity”.
On to `C/C=C(\C)C(=O)O[C@@H]1[C@@H](C)[C@@]2(O)C([C@@H]3C(C)(C)[C@]13OC(=O)[C@@H](C)CC)[C@@H]1O[C@]1(CO)[C@@H](O)[C@]1(O)C(=O)C(C)=C[C@H]12` (stereo partly shown) [EBC-46, tigilanol tiglate], for which the “translocation of PKC-βI-GFP” value in the data set on PKC-βI-GFP is reported as “modest translocation; also recorded: robust translocation”. In data set [1], the “stability in neutral aqueous media” value is recorded as “spontaneously undergo Payne rearrangement to EBC-211”. For the same compound, on PKC-βI, the “PKC isoform binding selectivity” value is on record as “isoform-selective binding”. For the same compound, the remission with mast cell tumors (after a second dose) was 88%. In addition, the complete response in the data set on mast cell tumors (after a single intratumoral injection) is 75%. Further, the PKC binding affinity result with protein kinase C (PKC) is reported as “potent PKC affinity”.
In the case of trigowiin A, in the data set on chikungunya virus (CHKV), the “antiviral activity against chikungunya virus” value is “moderate antiviral activity”. Besides, the PKC β binding affinity at PKC β is 19.3 nM. In addition, the PKC δ binding value (constant type not stated) on PKC δ was determined as 20.3 nM.
